The values below are quoted from earlier work in PubChem BioAssay AID1259409 (Chemical Carcinogenesis Research Information System (CCRIS), 2018).

This data set concerns rodent chemically induced tumor inhibition, incidence and multiplicity. The experiment in a line: CCRIS tumor inhibitor studies.

Turning to `S=C=NCCCCc1cccnc1`, the “tumour outcome (control, treated, inhibition, significance)” value is given as 100%, 100%, 0%, not significant (Carcinogen: 4-(METHYLNITROSAMINO)-1-(3-PYRIDYL)-1-BUTANONE, 64091-91-4, Dose [Inhibitor]: 0, 0.2 UMOL 1/D FOR 4 D ADMINISTERED PRIOR TO CARCINOGEN TREATMENT (STUDY DURATION: 116 D), Route [Inhibitor]: GAVAGE, Species: MOUSE, Strain/Sex: STRAIN A, Target Tissue: Type of Lesion: LUNG: ADENOMA, Dose [Carcinogen]: 10 UMOL ONCE 2 HR AFTER FINAL DOSE OF INHIBITOR, Promoter: NONE USED) and 100%, 100%, 0%, not significant (Carcinogen: 4-(METHYLNITROSAMINO)-1-(3-PYRIDYL)-1-BUTANONE, 64091-91-4, Dose [Inhibitor]: 0, 1 UMOL 1/D FOR 4 D ADMINISTERED PRIOR TO CARCINOGEN TREATMENT (STUDY DURATION: 116 D), Route [Inhibitor]: GAVAGE, Species: MOUSE, Strain/Sex: STRAIN A, Target Tissue: Type of Lesion: LUNG: ADENOMA, Dose [Carcinogen]: 10 UMOL ONCE 2 HR AFTER FINAL DOSE OF INHIBITOR, Promoter: NONE USED).

With `O=C1OCc2ccccc21`, the “tumour outcome (control, treated, inhibition, significance)” value (Carcinogen: BENZO[A]PYRENE, 50-32-8, Dose [Inhibitor]: 0.034 MMOL/G IN DIET BEGINNING 1 WK PRIOR TO FIRST CARCINOGEN DOSE AND CONTINUING FOR 3 D POST LAST CARCINOGEN DOSE (STU, Route [Inhibitor]: ORAL, Species: MOUSE, Strain/Sex: ICR/FEMALE, Target Tissue: Type of Lesion: FORESTOMACH: TUMOR, Dose [Carcinogen]: 1 MG IN 0.2 ML CORN OIL 2/WK FOR 4 WK, Promoter: NONE USED) is on record as 95%, 95%, 0%, not significant.

With `c1cc2c(cc1[C@H]1OC[C@@H]3[C@H]1CO[C@H]3c1ccc3c(c1)OCO3)OCO2`, the “tumour outcome (control, treated, inhibition, significance)” value is 87%, 47%, 46%, p<0.05 (Carcinogen: 4-NITROQUINOLINE-N-OXIDE, 56-57-5, Dose [Inhibitor]: 0, 2.5 MG/100 ML DRINKING WATER (TOTAL WEEKLY DOSE 1.26 MG) FOR 25 WK BEGINNING 5 WK POST CARCINOGEN DOSE (STUDY DURATIO, Route [Inhibitor]: ORAL, Species: MOUSE, Strain/Sex: ICR/FEMALE, Target Tissue: Type of Lesion: LUNG: TUMOR, Dose [Carcinogen]: 0.3 MG ONCE, Promoter: GLYCEROL, 56-81-5) and 100%, 85%, 15%, not calculated (Carcinogen: 7,12-DIMETHYLBENZ[A]ANTHRACENE, 57-97-6, Dose [Inhibitor]: 0, 85 NMOL IN 0.1 ML ACETONE 2/WK FOR 20 WK APPLIED 1 HR PRIOR TO EACH PROMOTER DOSE (STUDY DURATION: 20 WK), Route [Inhibitor]: DERMAL, Species: MOUSE, Strain/Sex: ICR/FEMALE, Target Tissue: Type of Lesion: SKIN: PAPILLOMA, Dose [Carcinogen]: 100 UG IN 0.1 ML ACETONE ONCE, Promoter: 12-O-TETRADECANOYLPHORBOL-13-ACETATE, 16561-29-8).

On to `CCCCCCCCCCCCCCCC(=O)OC[C@@]1(O)C[C@@]23CC[C@@H]4c5ccoc5CC[C@@]4(C)[C@@H]2CC[C@@H]1C3`, for which the “tumour outcome (control, treated, inhibition, significance)” value (Carcinogen: 7,12-DIMETHYLBENZ[A]ANTHRACENE, 57-97-6, Dose [Inhibitor]: 0, 60 MG 1/D FOR 3 D BEGINNING 3 D PRIOR TO CARCINOGEN DOSE (STUDY DURATION: 20 WK), Route [Inhibitor]: GAVAGE, Species: RAT, Strain/Sex: SPRAGUE-DAWLEY/FEMALE, Target Tissue: Type of Lesion: MAMMARY GLAND: TUMOR, Dose [Carcinogen]: 12 MG IN 1 ML OLIVE OIL ONCE, Promoter: NONE USED) is recorded as 84%, 69%, 18%, not significant.

Turning to `CC[C@H](CC[C@@H](C)[C@H]1CC[C@H]2[C@@H]3CC=C4C[C@@H](O)CC[C@]4(C)[C@H]3CC[C@]12C)C(C)C`, the “tumour outcome (control, treated, inhibition, significance)” value reads like this: (Carcinogen: 7,12-DIMETHYLBENZ[A]ANTHRACENE, 57-97-6, Dose [Inhibitor]: 0, 5 UMOL 2/WK BEGINNING 1 WK POST CARCINOGEN TREATMENT AND CONTINUING FOR 18 WK (STUDY DURATION: 19 WK), Route [Inhibitor]: DERMAL, Species: MOUSE, Strain/Sex: ICR/FEMALE, Target Tissue: Type of Lesion: SKIN: PAPILLOMA, Dose [Carcinogen]: 50 UG ONCE, Promoter: 12-O-TETRADECANOYLPHORBOL-13-ACETATE, 16561-29-8) 100%, 80%, 20%, not calculated; (Carcinogen: AZOXYMETHANE, 25843-45-2, Dose [Inhibitor]: 2 G/KG DIET DAILY FOR 26 WK STARTING SIMULTANEOUSLY WITH CARCINOGEN TREATMENT (STUDY DURATION: 26 WK), Route [Inhibitor]: ORAL, Species: RAT, Strain/Sex: SPRAGUE-DAWLEY/MALE, Target Tissue: Type of Lesion: LARGE INTESTINE: MALIGNANT TUMOR, Dose [Carcinogen]: 8 MG/KG BW INJECTED 1/WK FOR 8 WK, Promoter: NONE USED) 90%, 93%, -3%, not significant; (Carcinogen: AZOXYMETHANE, 25843-45-2, Dose [Inhibitor]: 2 G/KG DIET DAILY FOR 26 WK STARTING SIMULTANEOUSLY WITH CARCINOGEN TREATMENT (STUDY DURATION: 26 WK), Route [Inhibitor]: ORAL, Species: RAT, Strain/Sex: SPRAGUE-DAWLEY/MALE, Target Tissue: Type of Lesion: SMALL INTESTINE: MALIGNANT TUMOR, Dose [Carcinogen]: 8 MG/KG BW INJECTED 1/WK FOR 8 WK, Promoter: NONE USED) 90%, 96%, -7%, not significant; (Carcinogen: AZOXYMETHANE, 25843-45-2, Dose [Inhibitor]: 2 G/KG DIET DAILY STARTING SIMULTANEOUSLY WITH CARCINOGEN TREATMENT AND CONTINUING THROUGH END OF STUDY (STUDY DURATION:, Route [Inhibitor]: ORAL, Species: RAT, Strain/Sex: SPRAGUE-DAWLEY/MALE, Target Tissue: Type of Lesion: LARGE INTESTINE: MALIGNANT TUMOR, Dose [Carcinogen]: 8 MG/KG BW 1/WK FOR 8 WK, Promoter: NONE USED) 90%, 93%, -3%, not significant; (Carcinogen: AZOXYMETHANE, 25843-45-2, Dose [Inhibitor]: 2 G/KG DIET DAILY STARTING SIMULTANEOUSLY WITH CARCINOGEN TREATMENT AND CONTINUING THROUGH END OF STUDY (STUDY DURATION:, Route [Inhibitor]: ORAL, Species: RAT, Strain/Sex: SPRAGUE-DAWLEY/MALE, Target Tissue: Type of Lesion: SMALL INTESTINE: MALIGNANT TUMOR, Dose [Carcinogen]: 8 MG/KG BW 1/WK FOR 8 WK, Promoter: NONE USED) 90%, 96%, -7%, not significant; (Carcinogen: N-METHYL-N-NITROSOUREA, 684-93-5, Dose [Inhibitor]: 0.2% IN DIET DAILY FOR 28 WK STARTING SIMULTANEOUSLY WITH CARCINOGEN TREATMENT AND CONTINUING FOR DURATION OF STUDY (STU, Route [Inhibitor]: ORAL, Species: RAT, Strain/Sex: FISCHER CD/MALE, Target Tissue: Type of Lesion: COLON: ADENOMA, Dose [Carcinogen]: 2 MG IN 0.5 ML OF 0.9% NACL SOLUTION 1/3 D FOR 10 D, Promoter: NONE USED) 38/71 (54%), 16/48 (33%), 39%, p<0.05.
